Tests used:
P388/S tumor cells = experiment: In vitro growth inhibition of P388/S tumor cells (Coulter counter); assay type: cell-based; details: Mus musculus, 72 hours, 37° C., read-out: IC50, concentration causing 50% inhibition of P388/S cell growth
Method: (§1) In vitro activity tests were performed for evaluating the inhibitory activities of the antitumor substances BE-12406A and B against mouse tumor cells. In the in vitro antitumor assay using P388 tumor cells, the antitumor substance BE-12406A or B was first dissolved in dimethyl sulfoxide and the solution was serially diluted with a cell culture medium containing 20% of dimethyl sulfoxide (20% DMSO-RPMI-1640 medium). Then, 2 μl of each dilution was added to 200 μl of a cell culture medium (10% fetal calf serum-RPMI-1640 medium) containing 2.5×10^4 tumor cells and the mixture was incubated under 5% CO2 at 37° C. for 72 hours. The viable cells were then counted with a Coulter counter. The result was compared with the control data. […] The corresponding values for P388/V cells were 0.2 and 7 μM, respectively.
(§2) The P388/S tumor cell line is one of the common mouse leukemia cell lines, and the P388/V line is a strain of P388 leukemia cell which has acquired resistance to the anticancer agent vincristine.

P388/V cells = experiment: In vitro growth inhibition of P388/V cells (vincristine-resistant); assay type: cell-based; details: Mus musculus, 72 hours, 37° C., read-out: IC50, 50% inhibition of P388/V cell growth
Method: as §1, §2

P388/A cells = experiment: In vitro growth inhibition of P388/A cells (adriamycin-resistant); assay type: cell-based, mouse; details: for IC50: Mus musculus, P388/A (adriamycin-resistant), read-out: IC50, 50% inhibitory concentration, P388/A; for inhibition of P388/A cells (in words): adriamycin-resistant
Method: as §1

HeLa cells = experiment: In vitro growth inhibition of HeLa cells (Crystal Violet); assay type: cell-based, human; details: 72 hours, 37° C.; for IC50: Homo sapiens, HeLa, read-out: IC50, 50% inhibitory concentration, HeLa
Method: (§3) Then, the in vitro inhibitory activity of BE-12406A and B was assayed using HeLa cells, which are human cancer cells, and L1210 cells which are mouse leukemia cells.
Thus, antitumor substance BE-12406A or B in a concentration series was added to 200 μl of a cell culture medium (10% fetal calf serum-MEM medium) containing 4×10^3 HeLa cells and the mixture was incubated under 5% CO2 at 37° C. for 72 hours. The surviving adherent cells were fixed with 10% formalin and stained with 0.01% Crystal Violet. Using a 1:1 (v/v) mixture of ethylene glycol and ethanol, the dye was extracted from the stained cells and the absorbance at 590 nm was measured and compared with the control.

L1210 cells = experiment: In vitro growth inhibition of L1210 cells (Coulter counter); assay type: cell-based, mouse; details: 37° C.; for growth inhibition of L1210 cells (in words): 72 hours; for IC50: Mus musculus, L1210, 72 hours, read-out: IC50, 50% inhibitory concentration, L1210
Method: as §3
The growth inhibition assay using L1210 cells was performed as follows. Thus, antitumor substance BE-12406A or B in a concentration series was added to 200 μl of a cell culture medium (10% fetal calf serum-RPMI-1640) containing 4.5×10^3 L1210 cells and the mixture was incubated under 5% CO2 at 37° C. for 72 hours. The surviving suspended cells were counted with a Coulter counter and the result was compared with the control.

[1] = tested on: human colon cancer cell line DLD-1; experiment: Cancer cell growth inhibition, DLD-1 (sulforhodamine B); assay type: cell-based; details: DLD-1, 72 hours, 37° C.
Method: (§4) For the assessment of the inhibitory activity of BE-12406A, B, X1 and X2 against human cancer cells, in vitro tests were carried out. As the test cells, human colon cancer cell lines DLD-1 and LS180 and human lung cancer cell line PC13 were used. The cell culture medium was 10% fetal calf serum-RPMI medium for DLD-1 and LS180, and 10% fetal calf serum-RPMI-1640 medium for PC13. First, each of BE-12406A, B, X1 and X2 was dissolved in dimethyl sulfoxide and the solution was serially diluted with PBS (phosphate-buffered saline) to prepare test solutions. The cancer cell growth inhibition assay was performed as follows. Thus, 100 μl of a cell culture medium containing 3×10^3 cancer cells was distributed into a 96-well microtiter plate and incubated under 5% CO2 at 37° C. for 24 hours. Then, 11 μl of the above test solutions were added and the incubation was further carried out under 5% CO2 at 37° C. for an additional 72 hours. The cells were then fixed with 50% trichloroacetic acid and stained with 0.4% sulforhodamine B. From the stained cells, the dye was extracted with 10 mM Tris solution and the absorbance at 540 nm was measured and compared with the control.

[2] = tested on: human colon cancer cell line LS180; experiment: Cancer cell growth inhibition, LS180 (sulforhodamine B); assay type: cell-based; details: LS180, 72 hours, 37° C.; for IC50: Homo sapiens
Method: as §4

[3] = tested on: human lung cancer cell line PC13; experiment: Cancer cell growth inhibition, PC13 (sulforhodamine B); assay type: cell-based; details: PC-13, PC13, 72 hours, 37° C.
Method: as §4

S-180 ascites tumor = experiment: Antitumor effect on transplanted mouse S-180 ascites tumor (survival); assay type: in vivo; details: i.p.; for MST (mean survival time): days 1, 4, 7, 9 and 13, female ICR mice; for MST (% T/C), (treated MST/control MST) × 100: ≥ 125 = marked antitumor effect
Method: In this assay using mice, 10^6 (lethal dose) S-180 tumor cells pre mouse were intrapetitoneally administered and the 5% DMSO-PBS (phosphate Buffered Saline solution of BE-12406A in a dilution series (1:2, 1:4, 1:8, etc.) was intraperitoneally administered. The results are summarized in Table 3.
^1 Inoculum: 10^6 ascites tumor cells, intraperitoneal
^2 Host: Female ICR mice
^3 Treatment schedule: BE12406A was administered intraperitoneally on
^4 MST: Mean survival time (in days)
^5 % T/C: (treated MST/control MST) × 100
^6 Criteria: When % T/C ≥ 125, the test compound was considere
to produce a marked antitumor effect at the particular concentration.

[4] = Acute toxicity in mice, single intraperitoneal dosing; assay type: in vivo, mouse (ICR; details: 100 mg/kg, ICR female mice
Solubility = assay type: physicochemical; details: for Solubility in organic solvents: dimethyl sulfoxide and other organic solvents
P388 tumor cells = experiment: In vitro growth inhibition of P388 tumor cells (overall statement); assay type: cell-based, mouse; details: 72 hours, 37° C.
Method: as §1

human cancer cells = experiment: In vitro growth inhibition of human cancer cells DLD-1, LS180 and PC13 (overall statement); assay type: cell-based; details: DLD-1, LS180, PC13; 72 hours, 37° C.
Method: as §4

| SMILES | IC50 (P388/S tumor cells) | IC50 (P388/V cells) | IC50 (P388/A cells) | inhibition of P388/A cells (in words) (P388/A cells) | growth inhibition of HeLa cells (in words) (HeLa cells) | IC50 (HeLa cells) | growth inhibition of L1210 cells (in words) (L1210 cells) | IC50 (L1210 cells) | IC50 [1] | IC50 [2] | inhibition of proliferation of LS180 (in words) [2] | IC50 [3] | Solubility in organic solvents (Solubility; tetrahydrofuran) | Solubility in water (Solubility) | growth inhibition of P388 tumor cells (in words) (P388 tumor cells) | growth inhibition of human cancer cells (in words) (human cancer cells) | Solubility in organic solvents (Solubility; dimethylformamide) | other results |
| --- | --- | --- | --- | --- | --- | --- | --- | --- | --- | --- | --- | --- | --- | --- | --- | --- | --- | --- |
| COc1cc(C)cc2c(=O)oc3c4cccc(O)c4c(OC4OC(C)C(O)C(O)C4O)cc3c12 (centres unmarked) [BE-12406A] | 0.8 µM | 0.2 µM | 0.9 µM | inhibited | inhibited growth | 11 µM | inhibited growth | 9.6 µM | 18.4 µM | 12 µM | markedly inhibited proliferation | 20.7 µM | readily soluble | Sparingly soluble | markedly inhibit the growth | inhibit the growth | – | MST (mean survival time) (S-180 ascites tumor; 2.5 mg/kg/injection): 12.0 days; MST (% T/C), (treated MST/control MST) × 100 (S-180 ascites tumor; 2.5 mg/kg/injection): 120 % T/C; MST (mean survival time) (S-180 ascites tumor; 5 mg/kg/injection): 13.0 days; MST (% T/C), (treated MST/control MST) × 100 (S-180 ascites tumor; 5 mg/kg/injection): 130 % T/C; MST (mean survival time) (S-180 ascites tumor; 10 mg/kg/injection): 15.0 days; MST (% T/C), (treated MST/control MST) × 100 (S-180 ascites tumor; 10 mg/kg/injection): 150 % T/C; MST (mean survival time) (S-180 ascites tumor; 20 mg/kg/injection): > 30.0 days; MST (% T/C), (treated MST/control MST) × 100 (S-180 ascites tumor; 20 mg/kg/injection): > 300 % T/C; MST (mean survival time) (S-180 ascites tumor; 40 mg/kg/injection): > 30.0 days; MST (% T/C), (treated MST/control MST) × 100 (S-180 ascites tumor; 40 mg/kg/injection): > 300 % T/C; antitumor effect on transplanted S-180 tumor cells (in words) (S-180 ascites tumor; mice): showed an antitumor effect; acute toxicity, death on day 5 [4]: no death was found |
| Cc1cc(O)c2c(c1)c(=O)oc1c3cccc(O)c3c(OC3OC(C)C(O)C(O)C3O)cc12 (centres unmarked) [BE-12406B] | 7 µM | 7 µM | 11 µM | inhibited | inhibited growth | 20 µM | inhibited growth | 60 µM | > 220 µM | 88.1 µM | – | 161 µM | readily soluble | Sparingly soluble | markedly inhibit the growth | inhibit the growth | – | – |
| COc1cc(C)cc2c(=O)oc3c4cccc(OC5OC(C)C(O)C(O)C5O)c4c(O)cc3c12 (centres unmarked) [BE-12406X1] | – | – | – | – | – | – | – | – | 91.9 µM | 36.3 µM | markedly inhibited proliferation | 115 µM | – | Sparingly soluble | – | inhibit the growth | soluble | – |
| COc1cc(C)cc2c(=O)oc3c4cccc(O)c4c(O)cc3c12 [BE-12406X2] | – | – | – | – | – | – | – | – | > 311 µM | 311 µM | – | > 311 µM | – | Sparingly soluble | – | inhibit the growth | soluble | – |

Source: US5061695A, “Antitumor substance BE-12406” (Banyu Pharmaceutical Co., Ltd., priority 1989, dated 1991)
